Reference: US20030134292A1, “Thermostable DNA polymerases and methods of making same” (priority 2001, published 2003)

Experiments:
Assay type in all cases: biochemical
[1] = molecular target: T1, Taq Δ271 F667Y (polymerase A) (Thermus aquaticus, UniProt P19821, F272M/F667Y); assay: DNA polymerase activity assay with detergent or additive, Taq Δ271 F667Y purified without detergent
T1 construct: made in house; host or cells: E. coli
Procedure: (§1) DNA polymerase activity was measured by running reactions of 50 μL containing 25 mM TAPS (tris-hydroxymethyl-methylaminopropane sulfonic acid) buffer, pH 9.3 (measured at 25° C.), 50 mM KCl, 2 mM MgCl2, 1 mM 2-mercaptoethanol, 0.2 mM each of dGTP, dCTP, dTTP, 0.2 mM [α-^33P]-dATP (0.05-0.1 Ci/mmol) and 0.4 mg/mL activated salmon sperm DNA. The reaction mixture (45 μL) was pre-heated to 74° C. and diluted polymerase (5 μL) added with thorough mixing. After 10 minutes of further incubation at 74° C., the reaction was stopped by the addition of 10 μL of 60 mM EDTA and the entire mixture placed at 0° C. Acid-precipitable radioactivity was determined on an aliquot ([…]) by diluting with 1 ml of 2 mM EDTA containing 0.05 mg/ml salmon sperm DNA and adding 1 mL of 20% (w/v) trichloroacetic acid, 2% (w/v) sodium pyrophosphate (Na4P2O7 10H2O) and incubating on ice for at least 15 minutes. Precipitated DNA was collected by filtering through 2.4 cm GFC filter disks (Schleichter and Schuell) and washed 7 times with 5ml of with 1 N HCl, 0.1 M sodium pyrophosphate. The filter was placed in 3 ml of aqueous scintillation counting fluid and ^33P-specific radioactivity determined by scintillation counting.
(§2) For the assays presented in Tables 5 and 6, the polymerase was diluted 10-5000 fold in a buffer containing 25 mM Tris-HCl pH 8.0, 50 mM KCl, 1 mM 2-mercaptoethanol, and the indicated concentration of detergent or other additive. Where possible, only reactions which incorporated 20- 100 pmol of dAMP in 10 minutes were used for calculation of activity.

[2] = molecular target: T2, Tth Δ273 F668Y (polymerase C) (Thermus thermophilus, UniProt P52028, F274M/F669Y); assay: DNA polymerase activity assay with detergent or additive, Tth Δ273 F668Y purified without detergent
T2 construct: made in house; host or cells: E. coli
Procedure: as §1, §2

[3] = molecular target: T3, Taq Δ271 F667Y E681W (polymerase B) (Thermus aquaticus, UniProt P19821, E681W/F272M/F667Y); assay: DNA polymerase activity assay with detergent or additive, Taq Δ271 F667Y E681W purified without detergent
T3 construct: made in house; host or cells: E. coli
Procedure: as §1, §2

[4] = system: activated salmon sperm DNA; assay: Specific DNA polymerase activity of enzymes purified and assayed with or without Tween 20 and NP-40
Procedure: In one embodiment of the present invention, Taq Δ271 F667Y, and Taq Δ271 F667Y E681W were purified with or without detergents NP-40 & Tween-20. The butyl Sepharose chromatography elution profile for polymerase extracted without detergents was essentially identical to the profile for polymerase extracted with Tween 20 and NP-40.
as §1

[5] = additive final concentration 0.01% (w/v)
[6] = additive final concentration 0.05% (w/v)
[7] = additive final concentration 0.1% (w/v)
[8] = additive final concentration 0.001% (w/v) in assay reaction mixture
[9] = additive final concentration 0.85% (w/v)
[10] = additive final concentration 0.5% (w/v)
[11] = additive final concentration 0.2% (w/v)
[12] = detergent in purification: 0.1% Tween 20, 0.1% NP-40, detergent in assay: 0.1% Tween 20, 0.1% NP-40 (reference, 100%)
[13] = detergent in purification: 0.1% Tween 20, 0.1% NP-40, detergent in assay: None
[14] = detergent in purification: None, detergent in assay: 0.1% Tween 20, 0.1% NP-40
[15] = detergent in purification: None, detergent in assay: None, 100% = polymerase purified and assayed using Tween 20 and NP-40

T2 sequence (P52028 274-834 F274M/F669Y): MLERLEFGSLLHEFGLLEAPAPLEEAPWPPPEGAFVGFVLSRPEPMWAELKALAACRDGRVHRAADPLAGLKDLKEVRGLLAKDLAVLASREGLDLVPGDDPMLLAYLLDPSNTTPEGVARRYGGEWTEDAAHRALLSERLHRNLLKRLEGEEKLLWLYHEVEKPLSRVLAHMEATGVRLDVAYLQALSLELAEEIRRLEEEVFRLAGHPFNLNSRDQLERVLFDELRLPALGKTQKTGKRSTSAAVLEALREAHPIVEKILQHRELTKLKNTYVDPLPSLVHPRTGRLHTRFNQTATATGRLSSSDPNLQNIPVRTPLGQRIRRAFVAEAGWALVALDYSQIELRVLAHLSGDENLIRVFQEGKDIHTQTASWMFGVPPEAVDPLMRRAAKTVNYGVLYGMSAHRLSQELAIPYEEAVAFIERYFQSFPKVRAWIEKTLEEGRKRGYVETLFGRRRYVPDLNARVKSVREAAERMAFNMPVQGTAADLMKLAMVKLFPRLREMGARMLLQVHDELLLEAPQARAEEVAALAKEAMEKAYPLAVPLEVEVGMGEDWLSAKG
T3 sequence (P19821 272-832 F272M/F667Y/E681W): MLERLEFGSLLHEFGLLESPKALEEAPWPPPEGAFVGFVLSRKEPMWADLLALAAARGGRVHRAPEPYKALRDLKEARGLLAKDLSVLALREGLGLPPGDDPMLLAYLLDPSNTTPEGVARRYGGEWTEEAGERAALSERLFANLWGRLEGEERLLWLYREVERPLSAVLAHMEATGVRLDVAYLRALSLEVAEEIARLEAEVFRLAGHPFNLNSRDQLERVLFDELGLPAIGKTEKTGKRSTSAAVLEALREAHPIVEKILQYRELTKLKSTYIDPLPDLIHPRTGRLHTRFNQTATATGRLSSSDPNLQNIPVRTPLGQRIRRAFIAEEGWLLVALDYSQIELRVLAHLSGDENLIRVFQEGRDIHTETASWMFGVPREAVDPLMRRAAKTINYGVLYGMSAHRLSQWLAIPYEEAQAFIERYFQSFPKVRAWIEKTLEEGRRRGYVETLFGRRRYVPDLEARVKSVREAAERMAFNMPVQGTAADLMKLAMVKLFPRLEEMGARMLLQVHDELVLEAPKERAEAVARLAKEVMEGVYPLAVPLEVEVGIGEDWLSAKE

## C[C@H](CCC(=O)[O-])[C@H]1CC[C@H]2[C@@H]3[C@H](O)C[C@@H]4C[C@H](O)CC[C@]4(C)[C@H]3C[C@H](O)[C@]12C.[Na+] [Sodium Cholate]
[1]; [5]
  Taq Δ271 F667Y activity relative to 0.5% each NP-40 and Tween 20: − − − (Activity < 20%)
[1]; [6]
  Taq Δ271 F667Y activity relative to 0.5% each NP-40 and Tween 20: − − − (Activity < 20%)
[1]; [7]
  Taq Δ271 F667Y activity relative to 0.5% each NP-40 and Tween 20: − − − (Activity < 20%)
[2]; [5]
  Tth Δ273 F668Y activity relative to 0.5% each NP-40 and Tween 20: − − − (Activity < 20%)
[2]; [6]
  Tth Δ273 F668Y activity relative to 0.5% each NP-40 and Tween 20: − − − (Activity < 20%)
[2]; [7]
  Tth Δ273 F668Y activity relative to 0.5% each NP-40 and Tween 20: − − − (Activity < 20%)
[3]; [5]
  Taq Δ271 F667Y E681W activity relative to 0.5% each NP-40 and Tween 20: − − − (Activity < 20%)
[3]; [6]
  Taq Δ271 F667Y E681W activity relative to 0.5% each NP-40 and Tween 20: − − − (Activity < 20%)
[3]; [7]
  Taq Δ271 F667Y E681W activity relative to 0.5% each NP-40 and Tween 20: − − − (Activity < 20%)

## CCCCCCCCCCCCO[C@@H]1O[C@H](CO)[C@@H](O[C@H]2O[C@H](CO)[C@@H](O)[C@H](O)[C@H]2O)[C@H](O)[C@H]1O [n-Dodecyl-β-D-Maltoside, n-dodecyl-β-D-maltoside]
[1]; [5]
  Taq Δ271 F667Y activity relative to 0.5% each NP-40 and Tween 20: + ++
[1]; detergent 0.01% (w/v)
  Polymerase A Activity (%): 98.8%
[2]; [5]
  Tth Δ273 F668Y activity relative to 0.5% each NP-40 and Tween 20: + + + (Activity > 80% (relative to activity using 0.5% each NP-40 and Tween 20))
[2]; detergent 0.01% (w/v)
  Polymerase C Activity (%): 80.8%
[3]; [8]
  Taq Δ271 F667Y E681W activity relative to 0.5% each NP-40 and Tween 20: + (Activity 60-70%)
[3]; [5]
  Taq Δ271 F667Y E681W activity relative to 0.5% each NP-40 and Tween 20: + + + (Activity > 80% (relative to activity using 0.5% each NP-40 and Tween 20))
[3]; additive final concentration 0.02% (w/v)
  Taq Δ271 F667Y E681W activity relative to 0.5% each NP-40 and Tween 20: + (Activity 60-70%)
[3]; [7]
  Taq Δ271 F667Y E681W activity relative to 0.5% each NP-40 and Tween 20: + (Activity 60-70%)
[3]; detergent 0.01% (w/v)
  Polymerase B Activity (%): 92.3%

## CCCCCCCC(=O)N(C)C[C@H](O)[C@@H](O)[C@H](O)[C@H](O)CO [Mega-8, Ocatanoyl-N-mehtylglucamide]
[1]; [7]
  Taq Δ271 F667Y activity relative to 0.5% each NP-40 and Tween 20: + + (Activity 70-80%)
[1]; [9]
  Taq Δ271 F667Y activity relative to 0.5% each NP-40 and Tween 20: + (Activity 60-70%)
[1]; detergent 0.5% (w/v)
  Polymerase A Activity (%): 76.6%
[2]; [7]
  Tth Δ273 F668Y activity relative to 0.5% each NP-40 and Tween 20: + + (Activity 70-80%)
[2]; [10]
  Tth Δ273 F668Y activity relative to 0.5% each NP-40 and Tween 20: + (Activity 60-70%)
[2]; [9]
  Tth Δ273 F668Y activity relative to 0.5% each NP-40 and Tween 20: + (Activity 60-70%)
[2]; detergent 0.5% (w/v)
  Polymerase C Activity (%): 84.5%
[3]; [8]
  Taq Δ271 F667Y E681W activity relative to 0.5% each NP-40 and Tween 20: − − − (Activity < 20%)
[3]; [5]
  Taq Δ271 F667Y E681W activity relative to 0.5% each NP-40 and Tween 20: − − − (Activity < 20%)
[3]; [7]
  Taq Δ271 F667Y E681W activity relative to 0.5% each NP-40 and Tween 20: − (Activity 50-60%)
[3]; [10]
  Taq Δ271 F667Y E681W activity relative to 0.5% each NP-40 and Tween 20: + + + (Activity > 80% (relative to activity using 0.5% each NP-40 and Tween 20))
[3]; [9]
  Taq Δ271 F667Y E681W activity relative to 0.5% each NP-40 and Tween 20: − − (Activity 20-50%)
[3]; detergent 0.5% (w/v)
  Polymerase B Activity (%): 71%

## CCCCCCCCO[C@@H]1O[C@H](CO)[C@@H](O)[C@H](O)[C@H]1O [Octyl Glucopyranoside, n-octyl-β-D-glucopyranoside]
[1]; [5]
  Taq Δ271 F667Y activity relative to 0.5% each NP-40 and Tween 20: − − − (Activity < 20%)
[1]; [7]
  Taq Δ271 F667Y activity relative to 0.5% each NP-40 and Tween 20: − − (Activity 20-50%)
[2]; [5]
  Tth Δ273 F668Y activity relative to 0.5% each NP-40 and Tween 20: − − − (Activity < 20%)
[2]; [7]
  Tth Δ273 F668Y activity relative to 0.5% each NP-40 and Tween 20: + + + (Activity > 80% (relative to activity using 0.5% each NP-40 and Tween 20))
[2]; detergent 0.1% (w/v)
  Polymerase C Activity (%): 79.7%
[3]; [5]
  Taq Δ271 F667Y E681W activity relative to 0.5% each NP-40 and Tween 20: − − − (Activity < 20%)
[3]; [7]
  Taq Δ271 F667Y E681W activity relative to 0.5% each NP-40 and Tween 20: + + + (Activity > 80% (relative to activity using 0.5% each NP-40 and Tween 20))
[3]; detergent 0.1% (w/v)
  Polymerase B Activity (%): 1%

## CCCCCCCCCC[N+](C)(C)CCCS(=O)(=O)[O-] [Zwittergent 3-10]
[1]; [6]
  Taq Δ271 F667Y activity relative to 0.5% each NP-40 and Tween 20: − − (Activity 20-50%)
[1]; [7]
  Taq Δ271 F667Y activity relative to 0.5% each NP-40 and Tween 20: − − (Activity 20-50%)
[1]; [11]
  Taq Δ271 F667Y activity relative to 0.5% each NP-40 and Tween 20: − (Activity 50-60%)
[2]; [6]
  Tth Δ273 F668Y activity relative to 0.5% each NP-40 and Tween 20: − − (Activity 20-50%)
[2]; [7]
  Tth Δ273 F668Y activity relative to 0.5% each NP-40 and Tween 20: + (Activity 60-70%)
[2]; [11]
  Tth Δ273 F668Y activity relative to 0.5% each NP-40 and Tween 20: + (Activity 60-70%)
[3]; [6]
  Taq Δ271 F667Y E681W activity relative to 0.5% each NP-40 and Tween 20: − − − (Activity < 20%)
[3]; [7]
  Taq Δ271 F667Y E681W activity relative to 0.5% each NP-40 and Tween 20: − − (Activity 20-50%)
[3]; [11]
  Taq Δ271 F667Y E681W activity relative to 0.5% each NP-40 and Tween 20: − − (Activity 20-50%)

B1: Taq Δ271, F667Y: Taq Δ271 F667Y DNA Polymerase (Thermo Sequenase), SEQ ID NO: 10, recombinant thermostable DNA polymerase (protein, listed as Thermus aquaticus)
chain: MLERLEFGSLLHEFGLLESPKALEEAPWPPPEGAFVGFVLSRKEPMWADLLALAAARGGRVHRAPEPYKALRDLKEARGLLAKDLSVLALREGLGLPPGDDPMLLAYLLDPSNTTPEGVARRYGGEWTEEAGERAALSERLFANLWGRLEGEERLLWLYREVERPLSAVLAHMEATGVRLDVAYLRALSLEVAEEIARLEAEVFRLAGHPFNLNSRDQLERVLFDELGLPAIGKTEKTGKRSTSAAVLEALREAHPIVEKILQYRELTKLKSTYIDPLPDLIHPRTGRLHTRFNQTATATGRLSSSDPNLQNIPVRTPLGQRIRRAFIAEEGWLLVALDYSQIELRVLAHLSGDENLIRVFQEGRDIHTETASWMFGVPREAVDPLMRRAAKTINYGVLYGMSAHRLSQELAIPYEEAQAFIERYFQSFPKVRAWIEKTLEEGRRRGYVETLFGRRRYVPDLEARVKSVREAAERMAFNMPVQGTAADLMKLAMVKLFPRLEEMGARMLLQVHDELVLEAPKERAEAVARLAKEVMEGVYPLAVPLEVEVGIGEDWLSAKE
[4]; [12]
  Assay (%*) specific activity: 100%
[4]; [13]
  Assay (%*) specific activity: 3%
[4]; [14]
  Assay (%*) specific activity: 102%
[4]; [15]
  Assay (%*) specific activity: 5%

B2: Taq Δ271, F667Y, E681W: Taq Δ271 F667Y E681W DNA Polymerase, SEQ ID NO: 12, recombinant thermostable DNA polymerase (protein, listed as Thermus aquaticus)
chain: MLERLEFGSLLHEFGLLESPKALEEAPWPPPEGAFVGFVLSRKEPMWADLLALAAARGGRVHRAPEPYKALRDLKEARGLLAKDLSVLALREGLGLPPGDDPMLLAYLLDPSNTTPEGVARRYGGEWTEEAGERAALSERLFANLWGRLEGEERLLWLYREVERPLSAVLAHMEATGVRLDVAYLRALSLEVAEEIARLEAEVFRLAGHPFNLNSRDQLERVLFDELGLPAIGKTEKTGKRSTSAAVLEALREAHPIVEKILQYRELTKLKSTYIDPLPDLIHPRTGRLHTRFNQTATATGRLSSSDPNLQNIPVRTPLGQRIRRAFIAEEGWLLVALDYSQIELRVLAHLSGDENLIRVFQEGRDIHTETASWMFGVPREAVDPLMRRAAKTINYGVLYGMSAHRLSQWLAIPYEEAQAFIERYFQSFPKVRAWIEKTLEEGRRRGYVETLFGRRRYVPDLEARVKSVREAAERMAFNMPVQGTAADLMKLAMVKLFPRLEEMGARML
[4]; [12]
  Assay (%*) specific activity: 100%
[4]; [13]
  Assay (%*) specific activity: 2%
[4]; [14]
  Assay (%*) specific activity: 157%
[4]; [15]
  Assay (%*) specific activity: 6%
